Literature values, collected in US20200129637A1, “COMBINATION THERAPY WITH AN ANTI-AXL ANTIBODY-DRUG CONJUGATE” (ADC Therapeutics SA, priority 2017, published 2020).

Tests used:
AXL [1] = test system: AXL
AXL [2] = conditions: incubation of tumor cells with MEKi
[3] = test system: chronic lymphocytic leukaemia cells

Molecule	Efficiency of the homologous recombination repair machinery (AXL [1])	Expression of DNA repair genes (AXL [1])	AXL on the membrane of tumor cells (AXL [2])	ERCC1 transcription [3]
CN1CCN(Cc2ccc(Nc3ncc(Cl)c(Nc4ccccc4S(=O)(=O)N(C)C)n3)cc2)CC1 [TP0903]	diminish the efficiency	decrease expression of DNA repair genes	–	–
Nc1nc(Nc2ccc3c(c2)CC[C@@H](N2CCCC2)CC3)nn1-c1cc2c(nn1)-c1ccccc1CCC2 [BGB324]	diminish the efficiency	decrease expression of DNA repair genes	–	–
O=C(NOC[C@H](O)CO)c1ccc(F)c(F)c1Nc1ccc(I)cc1F [PD325901]	–	–	strong accumulation of AXL	–
Fludarabine	–	–	–	suppress ERCC1 transcription
N#CC(=C(/N)Sc1ccccc1N)/C(C#N)=C(\N)Sc1ccccc1N [U0126]	–	–	strong accumulation of AXL	–
